Test results from patent publication US9096592B2, “Bicyclic aza heterocycles, and use thereof” (BAYER INTELLECTUAL PROPERTY GMBH, priority 2010, dated 2015).
Structures can show the parent of a compound that is named as a salt.

Test system: aorta rings
Test: Vasorelaxant action in vitro (phenylephrine-contracted rabbit aorta rings, organ bath)
Conditions: Oryctolagus cuniculus; concentration needed to reduce the phenylephrine contraction of rabbit aorta rings by 50%
Description: B-1. Vasorelaxant Action In Vitro
Rabbits are stunned by a blow to the neck and exsanguinated. The aorta is removed, freed from adhering tissue and divided into rings of width 1.5 mm, which are placed individually under prestress into 5 ml organ baths with carbogen-sparged Krebs-Henseleit solution at 37° C. having the following composition (each mM): sodium chloride 119; potassium chloride: 4.8; calcium chloride dihydrate: 1; magnesium sulfate heptahydrate: 1.4; potassium dihydrogenphosphate: 1.2; sodium hydrogencarbonate: 25; glucose: 10. The contractile force is determined with Statham UC2 cells, amplified and digitalized using A/D transducers (DAS-1802 HC, Keithley Instruments Munich), and recorded in parallel on linear recorders. To obtain a contraction, phenylephrine is added to the bath cumulatively in increasing concentration. After several control cycles, the substance to be studied is added in increasing dosage each time in every further run, and the magnitude of the contraction is compared with the magnitude of the contraction attained in the last preceding run. This is used to calculate the concentration needed to reduce the magnitude of the control value by 50% (IC50 value). The standard administration volume is 5 μl; the DMSO content in the bath solution corresponds to 0.1%.

| IC50 [nM] | Compound |
| --- | --- |
| 402 | COC(=O)N1NC(=O)Nc2nc(-c3nn(Cc4ccccc4F)c4ncccc34)nc(N)c21 [Example 105, Methyl 8-amino-6-[1-(2-fluorobenzyl)-1H-pyrazolo[3,4-b]pyridin-3-yl]-3-oxo-3,4-dihydropyrimido[4,5-e][1,2,4]triazine-1(2H)-carboxylate] |
| 23 | CCOC(=O)N1CCNc2nc(-c3nn(Cc4ccccc4F)c4ncccc34)nc(N)c21 [Example 76, Ethyl 4-amino-2-[1-(2-fluorobenzyl)-1H-pyrazolo[3,4-b]pyridin-3-yl]-7,8-dihydropteridine-5(6H)-carboxylate formate] |
| 87 | O=c1[nH]c2nc(-c3nn(Cc4ccccc4F)c4ncccc34)ncc2n1Cc1ccccc1F [Example 124, 7-(2-fluorobenzyl)-2-[1-(2-fluorobenzyl)-1H-pyrazolo[3,4-b]pyridin-3-yl]-7,9-dihydro-8H-purin-8-one] |
| 164 | Nc1nc(-c2nn(Cc3ccccc3F)c3ncccc23)nc2cccnc12 [Example 85, 2-[1-(2-Fluorobenzyl)-1H-pyrazolo[3,4-b]pyridin-3-yl]pyrido[3,2-d]pyrimidin-4-amine] |
| 421 | CS(=O)(=O)CCn1c(=O)[nH]c2nc(-c3nn(Cc4ccccc4F)c4ncc(F)cc34)ncc21 [Example 146, 2-[5-Fluoro-1-(2-fluorobenzyl)-1H-pyrazolo[3,4-b]pyridin-3-yl]-7-[2-(methylsulfonyl)ethyl]-7,9-dihydro-8H-purin-8-one] |
| 5980 | Nc1nc(-n2nc(Cc3ccccc3F)c3ncccc32)nc2[nH]c(=O)[nH]c12 [Example 90, 6-Amino-2-[3-(2-fluorobenzyl)-1H-pyrazolo[4,3-b]pyridin-1-yl]-7,9-dihydro-8H-purin-8-one] |
| 658 | CNc1nc(-c2nn(Cc3ccccc3F)c3ncccc23)nc2[nH]c(=O)n(CC(F)F)c12 [Example 103, 7-(2,2-Difluoroethyl)-2-[1-(2-fluorobenzyl)-1H-pyrazolo[3,4-b]pyridin-3-yl]-6-(methylamino)-7,9-dihydro-8H-purin-8-one] |
| 535 | Nc1nc(-n2nc(Cc3ccccc3F)c3ncccc32)nc2[nH]c(=O)n(CCO)c12 [Example 92, 6-Amino-2-[3-(2-fluorobenzyl)-1H-pyrazolo[4,3-b]pyridin-1-yl]-7-(2-hydroxyethyl)-7,9-dihydro-8H-purin-8-one] |
| 1090 | Nc1nc(-c2nn(Cc3ccccc3F)c3ncccc23)nc2cccc(Cl)c12 [Example 7, 5-Chloro-2-[1-(2-fluorobenzyl)-1H-pyrazolo[3,4-b]pyridin-3-yl]quinazolin-4-amine] |
| 284 | Nc1nc(-c2nn(Cc3ccccc3F)c3ncccc23)nc2sccc12 [Example 12, 2-[1-(2-Fluorobenzyl)-1H-pyrazolo[3,4-b]pyridin-3-yl]thieno[2,3-d]pyrimidin-4-amine] |
| 246 | Cc1nsc2nc(-c3nn(Cc4ccccc4F)c4ncccc34)nc(N)c12 [Example 13, 6-[1-(2-Fluorobenzyl)-1H-pyrazolo[3,4-b]pyridin-3-yl]-3-methyl[1,2]thiazolo[5,4-d]pyrimidin-4-amine] |
| 31 | CSc1nc2c(N)nc(-c3nn(Cc4ccccc4F)c4ncccc34)nc2[nH]1 [Example 29, 2-[1-(2-Fluorobenzyl)-1H-pyrazolo[3,4-b]pyridin-3-yl]-8-(methylsulfanyl)-7H-purin-6-amine] |
| 479 | O=c1[nH]c(=O)c2cnc(-c3nn(Cc4ccccc4F)c4ncccc34)nc2[nH]1 [Example 150, 7-[1-(2-Fluorobenzyl)-1H-pyrazolo[3,4-b]pyridin-3-yl]pyrimido[4,5-d]pyrimidine-2,4(1H,3H)-dione] |
| 98 | O=c1[nH]c2nc(-c3nn(Cc4ccccc4F)c4ncccc34)ncc2n1CCN1CCOCC1 [Example 142, 2-[1-(2-Fluorobenzyl)-1H-pyrazolo[3,4-b]pyridin-3-yl]-7-[2-(morpholin-4-yl)ethyl]-7,9-dihydro-8H-purin-8-one] |
| 83 | Nc1nc(-c2nn(Cc3ccccc3F)c3ncccc23)nc2[nH]c(=O)n(CC(F)(F)F)c12 [Example 44, 6-Amino-2-[1-(2-fluorobenzyl)-1H-pyrazolo[3,4-b]pyridin-3-yl]-7-(2,2,2-trifluoroethyl)-7,9-dihydro-8H-purin-8-one] |
| 462 | O=c1[nH]c2nc(-c3nn(Cc4ccccc4F)c4ncccc34)ncc2c(=O)n1CC(F)(F)F [Example 149, 7-[1-(2-Fluorobenzyl)-1H-pyrazolo[3,4-b]pyridin-3-yl]-3-(2,2,2-trifluoroethyl)pyrimido[4,5-d]pyrimidine-2,4(1H,3H)-dione] |
| 713 | Fc1ccccc1Cn1nc(-c2ncc3ccccc3n2)c2cccnc21 [Example 74, 2-[1-(2-Fluorobenzyl)-1H-pyrazolo[3,4-b]pyridin-3-yl]quinazoline] |
| 233 | Nc1nc(-c2nn(Cc3ccccc3F)c3ncccc23)nc2[nH]nc(OCCO)c12 [Example 21, 2-({4-Amino-6-[1-(2-fluorobenzyl)-1H-pyrazolo[3,4-b]pyridin-3-yl]-1H-pyrazolo[3,4-d]pyrimidin-3-yl}oxy)ethanol] |
| 114 | Nc1nc(-c2nn(Cc3ccccc3F)c3ncc(F)cc23)nc2[nH]c(=O)n(CC(F)(F)F)c12 [Example 62, 6-Amino-2-[5-fluoro-1-(2-fluorobenzyl)-1H-pyrazolo[3,4-b]pyridin-3-yl]-7-(2,2,2-trifluoroethyl)-7,9-dihydro-8H-purin-8-one] |
| 735 | Cc1nc(-c2nn(Cc3ccccc3F)c3ncccc23)nc2[nH]c(=O)[nH]c12 [Example 119, 2-[1-(2-Fluorobenzyl)-1H-pyrazolo[3,4-b]pyridin-3-yl]-6-methyl-7,9-dihydro-8H-purin-8-one] |
| 44 | Cn1c(=O)[nH]c2nc(-c3nn(Cc4ccccc4F)c4ncc(F)cc34)ncc21 [Example 95, 2-[5-Fluoro-1-(2-fluorobenzyl)-1H-pyrazolo[3,4-b]pyridin-3-yl]-7-methyl-7,9-dihydro-8H-purin-8-one] |
| 86 | O=c1[nH]c2ccc(-c3nn(Cc4ccccc4F)c4ncccc34)nc2[nH]1 [Example 71, 5-[1-(2-Fluorobenzyl)-1H-pyrazolo[3,4-b]pyridin-3-yl]-1,3-dihydro-2H-imidazo[4,5-b]pyridin-2-one] |
| 1390 | Nc1nc(-c2nn(Cc3ccccc3F)c3ncccc23)nc2[nH]c(=O)c(C(F)(F)F)nc12 [Example 50, 4-Amino-2-[1-(2-fluorobenzyl)-1H-pyrazolo[3,4-b]pyridin-3-yl]-6-(trifluoromethyl)pteridin-7(8H)-one] |
| 264 | Cn1c(=O)[nH]c2nc(-c3nn(Cc4ccccc4F)c4ncccc34)nc(C#CC(C)(C)O)c21 [Example 135, 2-[1-(2-Fluorobenzyl)-1H-pyrazolo[3,4-b]pyridin-3-yl]-6-(3-hydroxy-3-methylbut-1-yn-1-yl)-7-methyl-7,9-dihydro-8H-purin-8-one] |
| 146 | Cn1c(=O)[nH]c2nc(-n3nc(Cc4ccccc4F)c4ncccc43)nc(N)c21 [Example 89, 6-Amino-2-[3-(2-fluorobenzyl)-1H-pyrazolo[4,3-b]pyridin-1-yl]-7-methyl-7,9-dihydro-8H-purin-8-one] |
| 40 | O=c1[nH]c2nc(-c3nn(Cc4ccccc4F)c4ncccc34)ncc2n1C1CCN(C2CC2)CC1 [Example 104, 7-(1-Cyclopropylpiperidin-4-yl)-2-[1-(2-fluorobenzyl)-1H-pyrazolo[3,4-b]pyridin-3-yl]-7,9-dihydro-8H-purin-8-one] |
